Columns and labels:
[1] = test system: MEXF 394NL; assay: Monolayer Assay, PI: MEXF 394NL (Melanoma); type: cell-based, human
Source text: (§1) This example illustrates cell proliferation data in the form of IC50, IC70 and IC90 values obtained by exposure of human cancer cell-lines to compound (Ia). […].

[2] = test system: MEXF 462NL; assay: Monolayer Assay, PI: MEXF 462NL (Melanoma); type: cell-based, human
Source text: as §1

[3] = test system: OVXF OVCAR3; assay: Monolayer Assay, PI: OVXF OVCAR3 (Ovarian Cancer); type: cell-based, human
Source text: as §1

[4] = test system: PAXF 1657L; assay: Monolayer Assay, PI: PAXF 1657L; type: cell-based, human
Source text: as §1

[5] = test system: PRXF LNCAP; assay: Monolayer Assay, PI: PRXF LNCAP (Prostate); type: cell-based, human
Source text: as §1

[6] = test system: UXF 1138L; assay: Monolayer Assay, PI: UXF 1138L (Uterus Body); type: cell-based, human
Source text: as §1

[7] = test system: human colon carcinoma cells (HT29); assay: cells

**Q.** `CN[C@H]1CC[C@@H](c2ccc(Cl)c(Cl)c2)c2ccc(C#CCCCO)cc21` [compound (Ia), (1S-cis)-4-(3,4-dichlorophenyl)-7-(5-hydroxy-1-pentyn-1-yl)-1,2,3,4-tetrahydro-N-methyl-1-naphthalenamine hydroiodide] was tested. Which “Test/Control (%)” value ([1]; 23. μg/ml) did it give?
**A.** Its value is 2%.

**Q.** And the Test/Control activity class ([1]; 23. μg/ml)?
**A.** Its Test/Control activity class is “+++ (+++ (T/C < 10))”.

**Q.** And the “Test/Control (%)” value ([1]; 75. μg/ml)?
**A.** The value was 2%.

**Q.** What about the Test/Control activity class ([1]; 75. μg/ml) of the same compound?
**A.** The Test/Control activity class was “+++ (+++ (T/C < 10))”.

**Q.** And the “Test/Control (%)” value ([1]; .75 μg/ml)?
**A.** The value was 99%.

**Q.** And the Test/Control activity class ([1]; .75 μg/ml)?
**A.** The Test/Control activity class was “− (− (T/C = 50))”.

**Q.** And the “Test/Control (%)” value ([2]; 2.3 μg/ml)?
**A.** Its value is 107%.

**Q.** What about the Test/Control activity class ([2]; 2.3 μg/ml) of the same compound?
**A.** Its Test/Control activity class is “− (− (T/C = 50))”.

**Q.** What about the “Test/Control (%)” value ([2]; 7.5 μg/ml) of the same compound?
**A.** Its value is 20%.

**Q.** What about the Test/Control activity class ([2]; 7.5 μg/ml) of the same compound?
**A.** The Test/Control activity class was “++ (++ (10 <= T/C < 30))”.

**Q.** And the “Test/Control (%)” value ([2]; 23. μg/ml)?
**A.** The value was 2%.

**Q.** And the Test/Control activity class ([2]; 23. μg/ml)?
**A.** Its Test/Control activity class is “+++ (+++ (T/C < 10))”.

**Q.** And the “Test/Control (%)” value ([2]; 75. μg/ml)?
**A.** Its value is 2%.

**Q.** And the Test/Control activity class ([2]; 75. μg/ml)?
**A.** Its Test/Control activity class is “+++ (+++ (T/C < 10))”.

**Q.** What about the “Test/Control (%)” value ([2]; .75 μg/ml) of the same compound?
**A.** Its value is 102%.

**Q.** What about the Test/Control activity class ([2]; .75 μg/ml) of the same compound?
**A.** The Test/Control activity class was “− (− (T/C = 50))”.

**Q.** And the “Test/Control (%)” value ([3]; 2.3 μg/ml)?
**A.** The value was 103%.

**Q.** And the Test/Control activity class ([3]; 2.3 μg/ml)?
**A.** Its Test/Control activity class is “− (− (T/C = 50))”.

**Q.** And the “Test/Control (%)” value ([3]; 7.5 μg/ml)?
**A.** The value was 78%.

**Q.** And the Test/Control activity class ([3]; 7.5 μg/ml)?
**A.** Its Test/Control activity class is “− (− (T/C = 50))”.

**Q.** What about the “Test/Control (%)” value ([3]; 23. μg/ml) of the same compound?
**A.** The value was 4%.

**Q.** What about the Test/Control activity class ([3]; 23. μg/ml) of the same compound?
**A.** Its Test/Control activity class is “+++ (+++ (T/C < 10))”.

**Q.** What about the “Test/Control (%)” value ([3]; 75. μg/ml) of the same compound?
**A.** Its value is 5%.

**Q.** And the Test/Control activity class ([3]; 75. μg/ml)?
**A.** The Test/Control activity class was “+++ (+++ (T/C < 10))”.

**Q.** And the “Test/Control (%)” value ([3]; .75 μg/ml)?
**A.** Its value is 109%.

**Q.** And the Test/Control activity class ([3]; .75 μg/ml)?
**A.** Its Test/Control activity class is “− (− (T/C = 50))”.

**Q.** And the “Test/Control (%)” value ([4]; 2.3 μg/ml)?
**A.** The value was 92%.

**Q.** And the Test/Control activity class ([4]; 2.3 μg/ml)?
**A.** The Test/Control activity class was “− (− (T/C = 50))”.

**Q.** What about the “Test/Control (%)” value ([4]; 7.5 μg/ml) of the same compound?
**A.** Its value is 40%.

**Q.** What about the Test/Control activity class ([4]; 7.5 μg/ml) of the same compound?
**A.** The Test/Control activity class was “+ (+ (30 <= T/C < 50))”.

**Q.** What about the “Test/Control (%)” value ([4]; 23. μg/ml) of the same compound?
**A.** Its value is 6%.

**Q.** And the Test/Control activity class ([4]; 23. μg/ml)?
**A.** The Test/Control activity class was “+++ (+++ (T/C < 10))”.

**Q.** What about the “Test/Control (%)” value ([4]; 75. μg/ml) of the same compound?
**A.** Its value is 5%.

**Q.** And the Test/Control activity class ([4]; 75. μg/ml)?
**A.** The Test/Control activity class was “+++ (+++ (T/C < 10))”.

**Q.** What about the “Test/Control (%)” value ([4]; .75 μg/ml) of the same compound?
**A.** The value was 96%.

**Q.** And the Test/Control activity class ([4]; .75 μg/ml)?
**A.** The Test/Control activity class was “− (− (T/C = 50))”.

**Q.** What about the “Test/Control (%)” value ([5]; 2.3 μg/ml) of the same compound?
**A.** The value was 56%.

**Q.** What about the Test/Control activity class ([5]; 2.3 μg/ml) of the same compound?
**A.** Its Test/Control activity class is “− (− (T/C = 50))”.

**Q.** And the “Test/Control (%)” value ([5]; 7.5 μg/ml)?
**A.** Its value is 4%.

**Q.** And the Test/Control activity class ([5]; 7.5 μg/ml)?
**A.** Its Test/Control activity class is “+++ (+++ (T/C < 10))”.

**Q.** What about the “Test/Control (%)” value ([5]; 23. μg/ml) of the same compound?
**A.** Its value is 3%.

**Q.** What about the Test/Control activity class ([5]; 23. μg/ml) of the same compound?
**A.** The Test/Control activity class was “+++ (+++ (T/C < 10))”.

**Q.** What about the “Test/Control (%)” value ([5]; 75. μg/ml) of the same compound?
**A.** Its value is 3%.

**Q.** And the Test/Control activity class ([5]; 75. μg/ml)?
**A.** The Test/Control activity class was “+++ (+++ (T/C < 10))”.

**Q.** And the “Test/Control (%)” value ([5]; .75 μg/ml)?
**A.** The value was 78%.

**Q.** What about the Test/Control activity class ([5]; .75 μg/ml) of the same compound?
**A.** The Test/Control activity class was “− (− (T/C = 50))”.

**Q.** What about the “Test/Control (%)” value ([6]; 2.3 μg/ml) of the same compound?
**A.** Its value is 103%.

**Q.** And the Test/Control activity class ([6]; 2.3 μg/ml)?
**A.** Its Test/Control activity class is “− (− (T/C = 50))”.

**Q.** What about the “Test/Control (%)” value ([6]; 7.5 μg/ml) of the same compound?
**A.** The value was 3%.

**Q.** And the Test/Control activity class ([6]; 7.5 μg/ml)?
**A.** The Test/Control activity class was “+++ (+++ (T/C < 10))”.

**Q.** And the “Test/Control (%)” value ([6]; 23. μg/ml)?
**A.** The value was 2%.

**Q.** And the Test/Control activity class ([6]; 23. μg/ml)?
**A.** Its Test/Control activity class is “+++ (+++ (T/C < 10))”.

**Q.** And the “Test/Control (%)” value ([6]; 75. μg/ml)?
**A.** Its value is 3%.

**Q.** And the Test/Control activity class ([6]; 75. μg/ml)?
**A.** The Test/Control activity class was “+++ (+++ (T/C < 10))”.

**Q.** And the “Test/Control (%)” value ([6]; .75 μg/ml)?
**A.** Its value is 102%.

**Q.** And the Test/Control activity class ([6]; .75 μg/ml)?
**A.** Its Test/Control activity class is “− (− (T/C = 50))”.

**Q.** And the IC50 ([7]; HT-29, read-out: IC50, viability)?
**A.** Its IC50 is 12.7 µM.

**Q.** What about the viability at 30 µM ([7]; HT-29, read-out: cell viability) of the same compound?
**A.** The viability at 30 µM was 30.9%.
